These results are taken from patent publication US20050226924A1, “Composition comprising itraconazole for oral administration” (priority 2004, published 2005).

Series [1] in a line: Solubility test in dissolution medium (pH 1.2). The following applies: dissolution medium (pH 1.2) of Korea Pharmacopeia, simulated gastric fluid, thermodynamic from solid; dissolution medium pH 1.2, shaken at 25° C. for 24 hours, HPLC; Mean ± SD, n = 3. It counts as physicochemical. On the procedure:
Samples, equivalent to 30 mg of itraconazole, was added to […] of the test solution. The test solution used was the dissolution medium (pH 1.2) for dissolution test of Korea Pharmacopeia. After the samples were ultrasonicated for 30 minutes, they were shaked at 25° C. for 24 hours. Then, they were centrifuged at 3000 rpm for 20 minutes. The obtained supernatant was filtered using a 0.45 μm membrane filter, followed by 10-fold dilution with methanol. The content of itraconazole was measured by HPLC.

For series [2] the following is noted: cited from earlier work.

SMILES strings stand for the structures. Values after ≈ are worked out from the molar mass of the structure shown.

Take `CCC(C)n1ncn(-c2ccc(N3CCN(c4ccc(OCC5COC(Cn6cncn6)(c6ccc(Cl)cc6Cl)O5)cc4)CC3)cc2)c1=O` (racemic) [Itraconazole, (±)-cis-4-[4-[4-[4-[[2-(2,4-dichlorophenyl)-2-(1H-1,2,4-triazole-1-yl-methyl)-1,3-dioxolane-4-yl]methoxy]phenyl]-1-piperazinyl]phenyl]-2,4-dihydro-2-(1-methylpropyl)-3H-1,2,4-triazole-3-one]: the concentration in solution in series [1] (solubility at 24 h) came to 1.5 ± 0.7 µg/mL (≈ 2.13 µM). For the same compound, the Solubility in dichloromethane in series [2] (dichloromethane) was 239000 µg/mL (≈ 339000 µM). Besides, the Solubility in water result in series [2] (water) is given as “less than 1 μg/ml”.
